{
  "source": "the supplement of paper PMC10307832",
  "assay_in_all_cases": "relative viability (nuclei count vs DMSO), 5 days (fraction); higher = more cells survive",
  "key": {"GSK-J4 + Pictilisib": {"compound": "CCOC(=O)CCNc1cc(N2CCc3ccccc3CC2)nc(-c2ccccn2)n1 [GSK-J4] + CS(=O)(=O)N1CCN(Cc2cc3nc(-c4cccc5[nH]ncc45)nc(N4CCOCC4)c3s2)CC1 [Pictilisib] (partner 1 µM)", "outline": "(§1)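 The day after seeding in 1536-well plates, lung cancer cell lines were treated by pin tool with a single drug, or with a fixed anchor-drug dose together with five library-drug doses (not always all listed) in √10 steps. After 5 days, a combined fix-and-stain solution (final 0.05% Triton X-100, 1% formaldehyde, 1 ug/ml Hoechst) was added. Nuclei counted on 4× images gave relative viability as treated counts over vehicle counts, reported as the median of duplicate plates.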"}, "AZ3146 + Phenformin": {"compound": "CN1CCC(CC1)OC2=CC(=C(C=C2)NC3=NC=C4C(=N3)N(C(=O)N4C)C5CCCC5)OC [AZ3146] + N=C(N)NC(=N)NCCc1ccccc1 [Phenformin] (partner 250 µM)", "outline": "as §1"}, "AZ3146 + Pemetrexed": {"compound": "CN1CCC(CC1)OC2=CC(=C(C=C2)NC3=NC=C4C(=N3)N(C(=O)N4C)C5CCCC5)OC [AZ3146] + Nc1nc2[nH]cc(CCc3ccc(C(=O)N[C@@H](CCC(=O)O)C(=O)O)cc3)c2c(=O)[nH]1 [Pemetrexed] (partner 0.2 µM)", "outline": "as §1"}, "AZ3146 + Foretinib": {"compound": "CN1CCC(CC1)OC2=CC(=C(C=C2)NC3=NC=C4C(=N3)N(C(=O)N4C)C5CCCC5)OC [AZ3146] + COc1cc2c(Oc3ccc(NC(=O)C4(C(=O)Nc5ccc(F)cc5)CC4)cc3F)ccnc2cc1OCCCN1CCOCC1 [Foretinib] (partner 0.25 µM)", "outline": "as §1"}},
  "data": [
    {"cell line": "UMC-11", "values": [
      {"measurement": "relative viability", "setting": "GSK-J4 + Pictilisib; first compound 0.5 µM", "result": 0.739},
      {"measurement": "relative viability", "setting": "GSK-J4 + Pictilisib; first compound 1.581 µM", "result": 0.527},
      {"measurement": "relative viability", "setting": "GSK-J4 + Pictilisib; first compound 5 µM", "result": 0.499},
      {"measurement": "relative viability", "setting": "GSK-J4 + Pictilisib; first compound 15.81 µM", "result": 0.9},
      {"measurement": "relative viability", "setting": "GSK-J4 + Pictilisib; first compound 50 µM", "result": 0.256},
      {"measurement": "relative viability", "setting": "AZ3146 + Phenformin; first compound 0.08 µM", "result": 0.299},
      {"measurement": "relative viability", "setting": "AZ3146 + Phenformin; first compound 0.253 µM", "result": 0.311},
      {"measurement": "relative viability", "setting": "AZ3146 + Phenformin; first compound 0.8 µM", "result": 0.345},
      {"measurement": "relative viability", "setting": "AZ3146 + Phenformin; first compound 2.53 µM", "result": 0.317},
      {"measurement": "relative viability", "setting": "AZ3146 + Phenformin; first compound 8 µM", "result": 0.263},
      {"measurement": "relative viability", "setting": "AZ3146 + Pemetrexed; first compound 0.08 µM", "result": 0.643},
      {"measurement": "relative viability", "setting": "AZ3146 + Pemetrexed; first compound 0.253 µM", "result": 0.819},
      {"measurement": "relative viability", "setting": "AZ3146 + Pemetrexed; first compound 0.8 µM", "result": 0.782},
      {"measurement": "relative viability", "setting": "AZ3146 + Pemetrexed; first compound 2.53 µM", "result": 0.775},
      {"measurement": "relative viability", "setting": "AZ3146 + Pemetrexed; first compound 8 µM", "result": 0.43},
      {"measurement": "relative viability", "setting": "AZ3146 + Foretinib; first compound 0.08 µM", "result": 0.959},
      {"measurement": "relative viability", "setting": "AZ3146 + Foretinib; first compound 0.253 µM", "result": 1.04},
      {"measurement": "relative viability", "setting": "AZ3146 + Foretinib; first compound 0.8 µM", "result": 1.11},
      {"measurement": "relative viability", "setting": "AZ3146 + Foretinib; first compound 2.53 µM", "result": 0.813},
      {"measurement": "relative viability", "setting": "AZ3146 + Foretinib; first compound 8 µM", "result": 0.261}
    ]}
  ]
}
